Test [1] has as its target Receptor tyrosine-protein kinase erbB-2 (Homo sapiens, UniProt P04626). Briefly: Inhibition of HER2 (unknown origin).
Test [2] deals with Nuclear factor NF-kappa-B complex (Homo sapiens, UniProt P19838+Q00653+Q04206). The experiment in a line: Inhibition of NF-kappaB (unknown origin). Format: protein-complex assay.
Test [3] deals with T1, Epidermal growth factor receptor (Homo sapiens, UniProt P00533). Briefly: Inhibition of EGFR (unknown origin) by microplate reader.
In test [4] the target is Tubulin. Briefly: Inhibition of tubulin polymerization (unknown origin). Format: protein-complex assay, Homo sapiens.
The target of test [5] is T1, Epidermal growth factor receptor. Briefly: Inhibition of EGFR (unknown origin).
The target of test [6] is Histone deacetylase. The experiment in a line: Inhibition of HDAC in human HeLa cell nuclear extract using fluorogenic Boc-Lys(acetyl)-AMC as substrate preincubated for 5 mins followed by addition of substrate measured after 20 mins by microplate reader. Format: cell-free.
Test [7] deals with A549. The experiment in a line: Growth inhibition of human A549 cells. Format: functional.
Test [8] deals with A-431. Briefly: Growth inhibition of human A-431 cells. Format: functional.
In test [9] the test system is MCF7. Briefly: Growth inhibition of human MCF7 cells. Format: functional.
The target in test [10] is Tubulin. Briefly: Inhibition of tubulin polymerization (unknown origin) by measuring absorbance. Format: protein-complex assay, Homo sapiens.
Test [11] has as its system MDA-MB-231. The experiment in a line: Growth inhibition of human MDA-MB-231 cells incubated for 72 hrs by MTT assay. Format: functional.
Test [12] concerns MDA-MB-468. Briefly: Growth inhibition of human MDA-MB-468 cells incubated for 72 hrs by MTT assay. Format: functional. (Formazan colour is commonly taken as a measure of viable cells.)
In test [13] the test system is HT-29. The experiment in a line: Growth inhibition of human HT-29 cells incubated for 72 hrs by MTT assay. Format: functional.
Test [14] deals with KG-1. Briefly: Growth inhibition of human KG-1 cells incubated for 72 hrs by MTT assay. Format: functional.
Test [15] deals with Fibroblast growth factor receptor 4 (Homo sapiens, UniProt P22455). The experiment in a line: Inhibition of FGFR4 (unknown origin) using biotin as substrate incubated for 2 hrs by HTRF assay. A general note: TR-FRET usually uses a lanthanide donor and a delayed reading to cut background.
Test [16] addresses T1, Epidermal growth factor receptor. The experiment in a line: Inhibition of EGFR (unknown origin) using biotin as substrate incubated for 2 hrs by HTRF assay.
The target in test [17] is T2, Histone deacetylase 1 (Homo sapiens, UniProt Q13547). Briefly: Inhibition of HDAC1 (unknown origin).
T2 sequence (Q13547 whole entry): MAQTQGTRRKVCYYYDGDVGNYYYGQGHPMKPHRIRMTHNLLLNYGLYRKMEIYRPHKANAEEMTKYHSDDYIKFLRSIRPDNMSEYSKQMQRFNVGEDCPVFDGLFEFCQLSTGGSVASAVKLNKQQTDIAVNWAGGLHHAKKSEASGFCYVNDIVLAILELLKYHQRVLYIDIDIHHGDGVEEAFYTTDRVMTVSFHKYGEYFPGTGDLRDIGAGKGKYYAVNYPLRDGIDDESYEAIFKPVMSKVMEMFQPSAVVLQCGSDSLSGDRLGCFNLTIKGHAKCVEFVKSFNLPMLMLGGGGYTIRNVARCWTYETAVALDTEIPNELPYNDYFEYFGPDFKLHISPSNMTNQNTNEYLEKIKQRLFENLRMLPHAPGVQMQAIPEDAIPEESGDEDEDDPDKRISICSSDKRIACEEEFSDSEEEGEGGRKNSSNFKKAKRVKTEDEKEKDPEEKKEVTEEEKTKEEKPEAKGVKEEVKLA
For test [18], the target named is T3, Protein deacetylase HDAC6 (Homo sapiens, UniProt Q9UBN7).
T3 sequence (Q9UBN7 whole entry): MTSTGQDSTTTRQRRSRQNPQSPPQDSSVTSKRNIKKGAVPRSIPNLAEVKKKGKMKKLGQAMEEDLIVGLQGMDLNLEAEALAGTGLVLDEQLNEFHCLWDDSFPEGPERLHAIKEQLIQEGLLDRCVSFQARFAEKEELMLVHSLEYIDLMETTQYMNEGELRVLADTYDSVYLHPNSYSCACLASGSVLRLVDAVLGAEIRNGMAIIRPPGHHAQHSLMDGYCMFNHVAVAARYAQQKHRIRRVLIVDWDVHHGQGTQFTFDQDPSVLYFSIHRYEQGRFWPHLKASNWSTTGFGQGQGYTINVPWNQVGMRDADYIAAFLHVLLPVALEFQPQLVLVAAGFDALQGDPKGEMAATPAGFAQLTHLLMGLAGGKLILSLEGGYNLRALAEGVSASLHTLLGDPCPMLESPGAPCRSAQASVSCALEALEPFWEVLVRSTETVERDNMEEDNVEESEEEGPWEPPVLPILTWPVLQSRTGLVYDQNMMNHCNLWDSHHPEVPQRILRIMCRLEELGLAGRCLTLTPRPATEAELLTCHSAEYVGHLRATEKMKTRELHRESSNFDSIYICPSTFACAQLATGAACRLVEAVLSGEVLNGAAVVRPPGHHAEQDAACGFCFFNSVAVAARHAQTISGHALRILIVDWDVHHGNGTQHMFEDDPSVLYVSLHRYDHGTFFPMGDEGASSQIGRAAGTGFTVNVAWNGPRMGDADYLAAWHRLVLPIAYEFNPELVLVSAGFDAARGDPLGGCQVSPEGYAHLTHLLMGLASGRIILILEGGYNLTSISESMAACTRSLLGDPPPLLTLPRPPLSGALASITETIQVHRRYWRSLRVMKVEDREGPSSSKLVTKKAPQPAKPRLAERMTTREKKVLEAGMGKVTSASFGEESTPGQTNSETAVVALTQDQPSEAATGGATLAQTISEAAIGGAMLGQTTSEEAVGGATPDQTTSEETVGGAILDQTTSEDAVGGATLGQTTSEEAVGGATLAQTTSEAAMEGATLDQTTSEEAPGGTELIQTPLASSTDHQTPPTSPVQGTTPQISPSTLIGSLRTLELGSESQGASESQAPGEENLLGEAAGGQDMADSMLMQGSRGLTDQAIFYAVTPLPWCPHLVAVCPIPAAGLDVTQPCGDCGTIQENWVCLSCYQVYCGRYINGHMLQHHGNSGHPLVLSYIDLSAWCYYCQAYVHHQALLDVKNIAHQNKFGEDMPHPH
The experiment in a line: Inhibition of HDAC6 (unknown origin).

Test [19] deals with A-431. The experiment in a line: Antiproliferative activity against human A-431 cells overexpressing wildtype EGFR assessed as cell growth inhibition incubated for 24 hrs. Format: functional.
In test [20] the test system is NCI-H1975. Briefly: Antiproliferative activity against human H1975 cells overexpressing EGFR T790M/L858R assessed as cell growth inhibition incubated for 24 hrs. Format: functional.
The subject of test [21] is MCF7. The experiment in a line: Antiproliferative activity against human MCF7 cells overexpressing HER2 assessed as cell growth inhibition incubated for 24 hrs. Format: functional.
The target of test [22] is T2, Histone deacetylase 1. Briefly: Inhibition of human recombinant HDAC1 expressed in insect High5 cells using baculovirus expression system using Ac-Lys-Tyr-Lys (epsilon-acetyl)-AMC as substrate incubated for 24 hrs by multilabel plate reader method. Further details: species or system BTI-TN-5B1-4.
Test [23] concerns the target Histone deacetylase 3 (Homo sapiens, UniProt O15379). Briefly: Inhibition of human recombinant HDAC3 expressed in insect High5 cells using baculovirus expression system using Ac-Lys-Tyr-Lys (epsilon-acetyl)-AMC as substrate incubated for 24 hrs by multilabel plate reader method. Also on record: species or system BTI-TN-5B1-4.
In test [24] the target is T3, Protein deacetylase HDAC6. The experiment in a line: Inhibition of human recombinant HDAC6 expressed in insect High5 cells using baculovirus expression system using Boc-Lys (epsilon-acetyl)-AMC as substrate incubated for 3 hrs by multilabel plate reader method. Further details: species or system BTI-TN-5B1-4.
In test [25] the target is T1, Epidermal growth factor receptor. The experiment in a line: Inhibition of EGFR (unknown origin) using synthetic biotinylated peptide as substrate […] by microplate reader method relative to control.

Chain of Nuclear factor NF-kappa-B complex (P19838 1-433 limits assumed): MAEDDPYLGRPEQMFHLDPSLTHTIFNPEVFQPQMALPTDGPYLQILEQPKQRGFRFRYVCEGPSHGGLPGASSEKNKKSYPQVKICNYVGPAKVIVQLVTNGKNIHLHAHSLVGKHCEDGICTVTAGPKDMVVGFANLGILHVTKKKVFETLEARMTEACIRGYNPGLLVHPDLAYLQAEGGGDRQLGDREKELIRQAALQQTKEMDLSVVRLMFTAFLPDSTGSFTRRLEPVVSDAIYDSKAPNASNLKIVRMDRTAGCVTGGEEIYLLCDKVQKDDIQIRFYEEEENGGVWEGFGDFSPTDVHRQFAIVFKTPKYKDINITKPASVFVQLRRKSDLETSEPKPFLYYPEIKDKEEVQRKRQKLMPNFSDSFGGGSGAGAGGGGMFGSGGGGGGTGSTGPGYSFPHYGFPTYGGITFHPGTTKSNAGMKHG
Chain of Nuclear factor NF-kappa-B complex (Q00653 1-454 limits assumed): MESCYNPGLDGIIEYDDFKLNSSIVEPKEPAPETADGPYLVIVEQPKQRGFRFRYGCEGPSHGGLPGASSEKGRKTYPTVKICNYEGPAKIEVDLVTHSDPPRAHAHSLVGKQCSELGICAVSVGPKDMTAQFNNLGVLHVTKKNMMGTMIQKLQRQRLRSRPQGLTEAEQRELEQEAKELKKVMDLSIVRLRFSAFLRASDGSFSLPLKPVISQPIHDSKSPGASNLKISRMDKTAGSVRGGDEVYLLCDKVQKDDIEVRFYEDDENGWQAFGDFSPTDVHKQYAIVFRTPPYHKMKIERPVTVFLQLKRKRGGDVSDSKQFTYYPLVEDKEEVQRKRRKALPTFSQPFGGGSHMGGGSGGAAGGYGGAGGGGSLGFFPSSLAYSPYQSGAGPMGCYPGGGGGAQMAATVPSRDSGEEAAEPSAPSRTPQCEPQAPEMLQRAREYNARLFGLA
Chain of Nuclear factor NF-kappa-B complex (Q04206 whole entry): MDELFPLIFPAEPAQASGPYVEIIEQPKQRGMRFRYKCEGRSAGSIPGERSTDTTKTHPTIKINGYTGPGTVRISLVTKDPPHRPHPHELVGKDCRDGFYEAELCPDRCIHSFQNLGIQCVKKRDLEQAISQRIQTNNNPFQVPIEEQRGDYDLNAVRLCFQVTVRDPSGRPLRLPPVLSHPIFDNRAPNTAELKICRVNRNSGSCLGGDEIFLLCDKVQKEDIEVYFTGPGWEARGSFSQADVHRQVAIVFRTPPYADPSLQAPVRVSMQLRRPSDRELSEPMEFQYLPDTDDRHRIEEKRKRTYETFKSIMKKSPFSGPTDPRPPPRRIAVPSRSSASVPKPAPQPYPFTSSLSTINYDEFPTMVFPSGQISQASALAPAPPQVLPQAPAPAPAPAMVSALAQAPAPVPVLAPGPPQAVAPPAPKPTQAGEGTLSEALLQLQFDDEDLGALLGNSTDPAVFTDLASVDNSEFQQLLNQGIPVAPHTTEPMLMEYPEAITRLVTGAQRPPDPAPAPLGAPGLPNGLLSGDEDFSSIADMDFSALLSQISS
T1 sequence (P00533 whole entry): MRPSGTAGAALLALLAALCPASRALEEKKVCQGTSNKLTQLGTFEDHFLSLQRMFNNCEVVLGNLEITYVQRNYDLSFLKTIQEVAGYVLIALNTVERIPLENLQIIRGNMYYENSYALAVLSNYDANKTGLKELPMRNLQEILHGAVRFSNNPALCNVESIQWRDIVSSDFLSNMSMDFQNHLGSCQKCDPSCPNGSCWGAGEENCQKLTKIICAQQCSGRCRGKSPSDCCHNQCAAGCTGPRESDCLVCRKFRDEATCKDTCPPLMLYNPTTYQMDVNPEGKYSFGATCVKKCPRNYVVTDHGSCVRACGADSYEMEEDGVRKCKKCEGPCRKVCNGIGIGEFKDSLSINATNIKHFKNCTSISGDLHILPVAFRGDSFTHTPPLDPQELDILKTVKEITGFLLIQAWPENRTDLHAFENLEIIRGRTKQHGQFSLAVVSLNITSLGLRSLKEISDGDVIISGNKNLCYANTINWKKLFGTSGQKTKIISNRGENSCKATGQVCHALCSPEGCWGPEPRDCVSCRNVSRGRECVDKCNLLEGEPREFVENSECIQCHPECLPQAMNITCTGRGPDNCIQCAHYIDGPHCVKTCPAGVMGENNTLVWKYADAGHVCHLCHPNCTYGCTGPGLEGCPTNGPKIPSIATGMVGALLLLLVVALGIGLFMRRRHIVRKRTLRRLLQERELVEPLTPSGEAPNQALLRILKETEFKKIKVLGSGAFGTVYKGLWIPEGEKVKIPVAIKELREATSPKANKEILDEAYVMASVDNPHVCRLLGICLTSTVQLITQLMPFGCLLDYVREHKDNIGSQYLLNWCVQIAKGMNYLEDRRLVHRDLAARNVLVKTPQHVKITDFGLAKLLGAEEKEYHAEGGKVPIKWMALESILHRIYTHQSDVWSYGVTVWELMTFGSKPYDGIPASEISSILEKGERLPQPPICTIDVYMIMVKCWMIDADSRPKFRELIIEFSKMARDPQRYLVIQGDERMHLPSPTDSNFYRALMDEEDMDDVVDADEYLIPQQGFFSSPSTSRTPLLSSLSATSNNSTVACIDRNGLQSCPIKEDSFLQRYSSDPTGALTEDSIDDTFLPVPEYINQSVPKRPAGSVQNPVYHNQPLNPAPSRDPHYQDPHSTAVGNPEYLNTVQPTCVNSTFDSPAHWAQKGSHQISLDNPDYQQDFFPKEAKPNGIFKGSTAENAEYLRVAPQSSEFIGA
Chain of Receptor tyrosine-protein kinase erbB-2 (P04626 whole entry): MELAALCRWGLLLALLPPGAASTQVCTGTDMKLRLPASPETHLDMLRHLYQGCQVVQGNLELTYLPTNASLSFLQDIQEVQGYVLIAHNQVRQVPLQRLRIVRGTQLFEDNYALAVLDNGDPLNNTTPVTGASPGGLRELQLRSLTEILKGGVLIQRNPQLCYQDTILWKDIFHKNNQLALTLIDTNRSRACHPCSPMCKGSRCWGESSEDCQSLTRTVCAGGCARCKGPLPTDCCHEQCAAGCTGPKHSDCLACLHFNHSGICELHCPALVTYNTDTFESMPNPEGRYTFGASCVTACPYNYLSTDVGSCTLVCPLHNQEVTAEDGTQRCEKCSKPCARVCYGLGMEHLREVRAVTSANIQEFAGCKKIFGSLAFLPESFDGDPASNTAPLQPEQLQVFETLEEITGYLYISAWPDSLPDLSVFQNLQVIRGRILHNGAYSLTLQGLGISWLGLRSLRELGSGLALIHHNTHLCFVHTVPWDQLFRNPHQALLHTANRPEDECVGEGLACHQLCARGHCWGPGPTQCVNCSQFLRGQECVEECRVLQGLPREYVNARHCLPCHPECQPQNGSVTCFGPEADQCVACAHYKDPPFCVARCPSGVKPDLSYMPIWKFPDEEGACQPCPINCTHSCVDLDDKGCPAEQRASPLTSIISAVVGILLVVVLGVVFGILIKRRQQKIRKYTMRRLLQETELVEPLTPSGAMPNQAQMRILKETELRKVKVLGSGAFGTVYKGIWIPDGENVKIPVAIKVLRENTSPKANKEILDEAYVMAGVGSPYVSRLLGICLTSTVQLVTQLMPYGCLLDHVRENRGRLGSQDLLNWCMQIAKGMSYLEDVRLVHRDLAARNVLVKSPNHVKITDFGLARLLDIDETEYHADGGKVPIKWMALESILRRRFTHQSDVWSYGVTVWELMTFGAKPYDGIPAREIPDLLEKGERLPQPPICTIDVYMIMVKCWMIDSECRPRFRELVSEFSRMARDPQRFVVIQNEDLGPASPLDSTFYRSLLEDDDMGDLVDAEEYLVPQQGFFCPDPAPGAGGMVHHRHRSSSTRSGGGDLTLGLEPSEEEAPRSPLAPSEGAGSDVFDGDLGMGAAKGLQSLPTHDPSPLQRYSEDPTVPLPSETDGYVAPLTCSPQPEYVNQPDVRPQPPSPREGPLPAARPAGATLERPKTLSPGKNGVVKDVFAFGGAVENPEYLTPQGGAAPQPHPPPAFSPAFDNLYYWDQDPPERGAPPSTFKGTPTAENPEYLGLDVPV
Chain of Histone deacetylase 3 (O15379 whole entry): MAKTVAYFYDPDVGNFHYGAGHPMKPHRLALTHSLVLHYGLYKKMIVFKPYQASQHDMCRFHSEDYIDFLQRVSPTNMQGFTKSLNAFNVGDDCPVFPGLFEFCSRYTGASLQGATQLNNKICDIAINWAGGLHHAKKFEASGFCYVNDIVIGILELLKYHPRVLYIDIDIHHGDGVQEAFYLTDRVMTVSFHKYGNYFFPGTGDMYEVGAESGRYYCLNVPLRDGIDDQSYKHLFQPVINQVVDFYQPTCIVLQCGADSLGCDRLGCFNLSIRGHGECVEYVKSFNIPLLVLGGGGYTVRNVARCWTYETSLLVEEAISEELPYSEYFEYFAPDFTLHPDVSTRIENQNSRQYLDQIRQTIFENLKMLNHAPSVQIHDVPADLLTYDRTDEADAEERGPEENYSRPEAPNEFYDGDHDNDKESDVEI

Broadly, the IC50 is the concentration needed to halve the response being measured. For the molecule `Cc1c(NC(=O)OC[C@@H]2COCCN2)cn2ncnc(Nc3ccc4c(cnn4Cc4cccc(F)c4)c3)c12` [AC-480], the IC50 in test [1] was determined as 30 nM.

In [2], `Fc1cc(F)cc(NC(=S)Nc2ccc3ncnc(Nc4cccc(Cl)c4)c3c2)c1` yielded an IC50 of 300 nM. Consider `NS(=O)(=O)c1ccc(NC(=O)c2ccccc2NC(=O)c2ccco2)cc1`, for which the figures for the IC50 in [3] and in test [4] were 31.2 nM and 108 nM, respectively.

In the case of `COc1ccc(/C=C\C(=O)c2ccc(Br)c3cc(-c4ccc(F)cc4)oc23)cc1`, the IC50 in test [5] was found to be 90 nM. `FC(F)(F)c1csc(NC(=S)Nc2ccc3ncnc(Nc4cccc(Cl)c4)c3c2)n1` gave an IC50 in test [2] of 600 nM. `S=C(NCc1ccccc1)Nc1ccc2ncnc(Nc3cccc(Br)c3)c2c1` gave an IC50 in test [2] of 4100 nM. `O=C(/C=C\c1ccc(OC(F)(F)F)cc1)c1ccc(Br)c2cc(-c3ccc(F)cc3)oc12` showed an IC50 in test [5] of 120 nM. Consider `O=C(Nc1ccccc1C(=O)N/N=C/c1ccc(O)cc1O)c1ccco1`, for which the 50% inhibitory concentration (IC50) in [3] came to 85.4 nM; in test [4], 87.6 nM. In turn, `Cn1cc(-c2ccnc(Nc3ccc(C(=O)NCCCCCCC(=O)NO)cc3)n2)c2ccccc21` registered an IC50 in test [6] of 105 nM. As a reminder, the GI50 is the concentration at which growth is held to half of that of the control. Regarding `O=C(Nc1ccc2ncnc(Nc3cccc(Br)c3)c2c1)c1ccc(C(F)(F)F)cc1O`, the GI50 amounted to 1640 nM in test [7], 670 nM in test [8] and 490 nM in [9]. On to `CCOCCSc1nc(-c2ccccc2Cl)nn1CCOCC`, for which the IC50 in test [3] worked out at 86.7 nM; in test [10] it was 10700 nM. Turning to `COc1cc(NC(=O)CCCCCCC(=O)NO)ccc1Nc1nccc(-c2cn(C)c3ccccc23)n1`, the GI50 is 600 nM in test [11], 230 nM in [12], 790 nM in [13] and 240 nM in test [14]. As to `COc1cc2ncnc(Oc3ccc(NC(=O)Nc4cccc(C(F)(F)F)c4)c4ccccc34)c2cc1OC`, the IC50 in test [15] came out at 86.2 nM; in test [16] it was 83.9 nM.

For the molecule `O=C(CCCCn1cc(-c2ccc3ncnc(Nc4ccccc4F)c3c2)nn1)NO`, the figures for the half-inhibitory concentration (IC50) in [5], in [17] and in test [18] were 10.3 nM, 1.1 nM and 4.3 nM, respectively.

In turn, `COc1ccc(N(C)c2nc(N)nc3c(Cc4ccccc4)c[nH]c23)cc1` gave an IC50 in test [4] above 20000 nM. As to `COc1cc(Nc2ncnc3cc(-c4ccc(C)cc4)sc23)cc(OC)c1OC`, it took 710 nM to reach half-maximal inhibition in test [4] (IC50). `CCN1CCN(Cc2ccc(-c3cc4c(N[C@H](C)c5ccccc5)ncnc4[nH]3)cc2)CC1` [AEE-788] showed an IC50 in [1] of 6 nM. With `CC(C)(O)CC(=O)NCCc1ccc2ncnc(Nc3ccc(Oc4cccc(C(F)(F)F)c4)c(Cl)c3)c2c1`, the GI50 in [19] is 41 nM; in test [20] it was 127 nM; in test [21], 94 nM.

For orientation: inhibition means the drop in the measured response relative to a control, in per cent. As to `COc1cc2ncnc(Nc3cccc(/C=C/C(=O)NO)c3)c2cc1OCCCN1CCOCC1`, the values for the IC50 in test [22], in [23] and in test [24] were 160 nM, 180 nM and 560 nM, respectively. The same molecule returned an inhibition in test [25] of 9.7%.

(Values after ChEMBL document CHEMBL5137005, “Development of Dual Inhibitors Targeting Epidermal Growth Factor Receptor in Cancer Therapy” (J Med Chem, 2022).)
